Biological target: T1, human LPAR1 (Homo sapiens, UniProt Q92633)
T1 construct: host or cells: TangoEDG2-bla U2OS cells
Experiment: Arrestin assay (Arrestin Reporter EDG2-bla U2OS), inhibition of LPA-stimulated signal
Type: cell-based
Details: TangoEDG2-bla U2OS cells expressing human LPAR1; 0.25 μM LPA; read-out: Arrestin Reporter EDG2-bla U2OS Human IC50
Procedure, shortened: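 IC50 comes from a variable-slope 4-parameter fit of % inhibition, calculated from the beta-lactamase FRET ratio (emission 460/530 nm, excitation 409 nm, 2 h development at RT). Compounds, 10 μM down to 0.00006 μM in 3-fold steps, were given 1 h before 0.25 μM final LPA for 3 h in TangoEDG2-bla U2OS cells.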

T1 sequence (Q92633 whole entry): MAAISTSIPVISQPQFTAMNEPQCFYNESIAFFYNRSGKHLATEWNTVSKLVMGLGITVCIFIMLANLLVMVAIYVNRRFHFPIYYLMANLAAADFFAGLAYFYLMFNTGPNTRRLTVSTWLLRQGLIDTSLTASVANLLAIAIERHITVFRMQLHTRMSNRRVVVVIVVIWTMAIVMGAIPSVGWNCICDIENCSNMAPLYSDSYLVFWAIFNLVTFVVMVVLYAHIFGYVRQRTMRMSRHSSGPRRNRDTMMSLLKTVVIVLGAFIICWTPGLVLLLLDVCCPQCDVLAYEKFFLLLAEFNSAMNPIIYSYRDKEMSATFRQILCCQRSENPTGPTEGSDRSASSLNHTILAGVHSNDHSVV

| IC50 [nM] | Compound |
| --- | --- |
| 57.2 | CC1(C)OCc2cnn(C3(C(=O)Nc4ccc(Cl)cc4OC(F)F)CCN(CC4(C(=O)O)CCOCC4)CC3)c21 [Compound 84, 4-[[4-[[4-chloro-2-(difluoromethoxy)phenyl]carbamoyl]-4-(6,6-dimethyl-4H-furo[3,4-c]pyrazol-1-yl)-1-piperidyl]methyl]tetrahydropyran-4-carboxylic acid] |

Same assay, conditions: TangoEDG2-bla U2OS cells expressing human LPAR1; 0.25 μM LPA; read-out: Arrestin Reporter EDG2-bla U2OS Human Merged IC50

| Compound | IC50 [nM] |
| --- | --- |
| CC(C)c1c(F)cnn1C1(C(=O)Nc2ccc(Cl)cc2OC(F)F)CCN(C[C@@H](C(=O)O)C2CCOCC2)CC1 [Compound 158, (2.8)-3-[4-[[4-chloro-2-(difluoromethoxy)phenyl]carbamoyl]-4-(4-fluoro-5-isopropyl-pyrazol-1-yl)-1-piperidyl]-2-tetrahydropyran-4-yl-propanoic acid] | 46 |
| CCOCC1(C(=O)N2CCC(CN3CCC(C(=O)Nc4ccc(Cl)cc4OC(F)F)(n4nccc4C(C)C)CC3)(C(=O)O)CC2)CC1 [Compound 85, 4-[[4-[[4-chloro-2-(difluoromethoxy)phenyl]carbamoyl]-4-(5-isopropylpyrazol-1-yl)-1-piperidyl]methyl]-1-[1-(ethoxymethyl)cyclopropanecarbonyl] piperidine-4-carboxylic acid] | 53.7 |
| CC(C)c1ccnn1C1(C(=O)Nc2ccc(Cl)cc2OC(F)F)CCN(C2(CC(=O)O)CCOCC2)CC1 [Compound 128, 2-[4-[4-[[4-chloro-2-(difluoromethoxy)phenyl]carbamoyl]-4-(5-isopropylpyrazol-1-yl)-1-piperidyl]tetrahydropyran-4-yl]acetic acid] | 56 |
| COc1ccc([C@@H](CN2CCC(C(=O)Nc3ccc(Cl)cc3OC(F)F)(n3nccc3C(C)C)CC2)C(=O)O)cc1 [Compound 29, (2S)-3-[4-[[4-chloro-2-(difluoromethoxy)phenyl]carbamoyl]-4-(5-isopropylpyrazol-1-yl)-1-piperidyl]-2-(4-methoxyphenyl) propanoic acid] | 4.75 |
| CC(C)c1ccnn1C1(C(=O)Nc2ccc(Cl)cc2OC(F)F)CCN([C@H]2C[C@](C(=O)O)(C(F)F)C2)CC1 [Compound 221] | 27.7 |
| CC(C)c1ccnn1C1(C(=O)Nc2ccc(Cl)cc2OC(F)F)CCN(CC2(C(=O)O)CCN(C(=O)C3CC3)CC2)CC1 [Compound 43, 4-[[4-[[4-chloro-2-(difluoromethoxy)phenyl]carbamoyl]-4-(5-isopropylpyrazol-1-yl)-1-piperidyl]methyl]-1-(cyclopropanecarbonyl) piperidine-4-carboxylic acid] | 27.6 |
| COC[C@@H](CN1CCC(C(=O)Nc2ccc(Cl)cc2OC(F)F)(n2ncc3c2C(C)(C)OC3)CC1)C(=O)O [Compound 211, (2R)-2-[[4-[[4-chloro-2-(difluoromethoxy)phenyl]carbamoyl]-4-(6,6-dimethyl-4H-furo[3,4-c]pyrazol-1-yl)-1-piperidyl]methyl]-3-methoxy-propanoic acid] | 87.3 |
| CC(C)c1ccnn1C1(C(=O)Nc2ccc(Cl)cc2OC(F)F)CCN(CC2(C(=O)O)CC3(COC3)C2)CC1 [Compound 40, 6-[[4-[[4-chloro-2-(difluoromethoxy)phenyl]carbamoyl]-4-(5-isopropylpyrazol-1-yl)-1-piperidyl]methyl]-2-oxaspiro[3.3]heptane-6-carboxylic acid] | 22.5 |
| COCC(CN1CCC(C(=O)Nc2ccc(Cl)cc2OC(F)F)(n2nccc2C(C)C)CC1)C(=O)O (stereo not drawn) [Compound 105, 2-[[4-[[4-chloro-2-(difluoromethoxy)phenyl]carbamoyl]-4-(5-isopropylpyrazol-1-yl)-1-piperidyl]methyl]-3-methoxy-propanoic acid] | 26.9 |
| COCCC(=O)N1CC(CN2CCC(C(=O)Nc3ccc(Cl)cc3OC(F)F)(n3nccc3C(C)C)CC2)(C(=O)O)C1 [Compound 102, 3-[[4-[[4-chloro-2-(difluoromethoxy)phenyl]carbamoyl]-4-(5-isopropylpyrazol-1-yl)-1-piperidyl]methyl]-1-(3-methoxypropanoyl) azetidine-3-carboxylic acid] | 158 |
| CC(C)c1ccnn1C1(C(=O)Nc2ccc(Cl)cc2OC(F)F)CCN(C[C@H](COCC(F)(F)F)C(=O)O)CC1 [Compound 234, (2R)-2-[[4-[[4-chloro-2-(difluoromethoxy)phenyl]carbamoyl]-4-(5-isopropylpyrazol-1-yl)-1-piperidyl]methyl]-3-(2,2,2-trifluoroethoxy)propanoic acid] | 9.54 |
| CC(C)c1ccnn1C1(C(=O)Nc2ccc(Cl)cc2OC(F)F)CCN(CC2(C(=O)O)CCCCO2)CC1 (stereo not drawn) [Compound 30, 2-[[4-[[4-chloro-2-(difluoromethoxy)phenyl]carbamoyl]-4-(5-isopropylpyrazol-1-yl)-1-piperidyl]methyl] tetrahydropyran-2-carboxylic acid] | 12.6 |
| CCC(=O)N1CCC(CN2CCC(C(=O)Nc3ccc(Cl)cc3OC(F)F)(n3nccc3C(C)C)CC2)(C(=O)O)CC1 [Compound 41, 4-[[4-[[4-chloro-2-(difluoromethoxy)phenyl]carbamoyl]-4-(5-isopropylpyrazol-1-yl)-1-piperidyl]methyl]-1-propanoyl-piperidine-4-carboxylic acid] | 22.8 |
| CC(C)c1ccnn1C1(C(=O)Nc2ccc(Cl)cc2OC(F)F)CCN(C[C@H](C(=O)O)[C@H]2CCOC2)CC1 [Compound 148, (2R)-3-[4-[[4-chloro-2-(difluoromethoxy)phenyl]carbamoyl]-4-(5-isopropylpyrazol-1-yl)-1-piperidyl]-2-[(3R)-tetrahydrofuran-3-yl]propanoic acid] | 50.4 |
| C=C(CN1CCC(C(=O)Nc2ccc(Cl)cc2OC(F)F)(n2nccc2C(C)C)CC1)C(=O)O [Compound 143, 2-[[4-[[4-chloro-2-(difluoromethoxy)phenyl]carbamoyl]-4-(5-isopropylpyrazol-1-yl)-1-piperidyl]methyl]prop-2-enoic acid] | 32.2 |

Now from value to compound:

| IC50 [nM] | Compound |
| --- | --- |
| 108 | CC(C)c1ccnn1C1(C(=O)Nc2ccc(Cl)cc2OC(F)F)CCN(C[C@@H](C(=O)O)N2C[C@H](C)O[C@@H](C)C2)CC1 [Compound 167, (2S)-3-[4-[[4-chloro-2-(difluoromethoxy)phenyl]carbamoyl]-4-(5-isopropylpyrazol-1-yl)-1-piperidyl]-2-[(2S,6S)-2,6-dimethylmorpholin-4-yl]propanoic acid] |
| 38.9 | CC(C)c1c(F)cnn1C1(C(=O)Nc2ccc(Cl)cc2OC(F)F)CCN([C@H]2C[C@@H](C(=O)O)C2)CC1 (single isomer, unassigned) [Compound 123, (1s,3s)-3-[4-[[4-chloro-2-(difluoromethoxy)phenyl]carbamoyl]-4-(4-fluoro-S-isopropyl-pyrazol-1-yl)-1-piperidyl]cyclobutanecarboxylic acid] |
| 28.4 | CC(C)c1ccnn1C1(C(=O)Nc2ccc(Cl)cc2OC(F)F)CCN(C[C@H](C(=O)O)C2COCCOC2)CC1 [Compound 216, (2R)-3-[4-[[4-chloro-2-(difluoromethoxy)phenyl]carbamoyl]-4-(5-isopropylpyrazol-1-yl)-1-piperidyl]-2-(1,4-dioxepan-6-yl)propanoic acid] |
| 48.8 | CC(C)c1ccnn1C1(C(=O)Nc2ccc(Cl)cc2OC(F)F)CCN(C2CC(O)(C(=O)O)C2)CC1 (stereo not drawn) [Compound 121, 3-[4-[[4-chloro-2-(difluoromethoxy)phenyl]carbamoyl]-4-(5-isopropylpyrazol-1-yl)-1-piperidyl]-1-hydroxy-cyclobutanecarboxylic acid] |
| 75.5 | CC(C)c1ccnn1C1(C(=O)Nc2ccc(Cl)cc2OC(F)F)CCN(CC2(C(=O)O)CCN(C(=O)O[C@@H]3CCOC3)CC2)CC1 [Compound 110, 4-[[4-[[4-chloro-2-(difluoromethoxy)phenyl]carbamoyl]-4-(5-isopropylpyrazol-1-yl)-1-piperidyl]methyl]-1-[(3R)-tetrahydrofuran-3-yl]oxycarbonyl-piperidine-4-carboxylic acid] |
| 40.8 | CC(C)c1ccnn1C1(C(=O)Nc2ccc(Cl)cc2OC(F)F)CCN([C@H]2C[C@@H](CC(=O)O)C2)CC1 [Compound 94, (1s,3s)-2-[3-[4-[[4-chloro-2-(difluoromethoxy)phenyl]carbamoyl]-4-(5-isopropylpyrazol-1-yl)-1-piperidyl]cyclobutyl] acetic acid] |
| 52.6 | CC(C)c1ccnn1C1(C(=O)Nc2ccc(Cl)cc2OC(F)F)CCN(CC(C(=O)O)C2CCOCC2)CC1 (stereo not drawn) [Compound 11, 3-[4-[[4-chloro-2-(difluoromethoxy)phenyl]carbamoyl]-4-(5-isopropylpyrazol-1-yl)-1-piperidyl]-2-tetrahydropyran-4-yl-propanoic acid] |
| 75.8 | CC(C)c1c(F)cnn1C1(C(=O)Nc2ccc(Cl)cc2OC(F)F)CCN([C@H]2CO[C@@H](C(=O)O)C2)CC1 [Compound 214, (2R,4R)-4-[4-[[4-chloro-2-(difluoromethoxy)phenyl]carbamoyl]-4-(4-fluoro-5-isopropyl-pyrazol-1-yl)-1-piperidyl]tetrahydrofuran-2-carboxylic acid] |
| 9.56 | COc1ccc(C(CN2CCC(C(=O)Nc3ccc(Cl)cc3OC(F)F)(n3nccc3C(C)C)CC2)C(=O)O)cc1 (stereo not drawn) [Compound 19, 3-[4-[[4-chloro-2-(difluoromethoxy)phenyl]carbamoyl]-4-(5-isopropylpyrazol-1-yl)-1-piperidyl]-2-(4-methoxyphenyl) propanoic acid] |
| 17.6 | CC(C)c1ccnn1C1(C(=O)Nc2ccc(Cl)cc2OC(F)F)CCN(CC2(C(=O)O)CCC2)CC1 [Compound 45, 1-[[4-[[4-chloro-2-(difluoromethoxy)phenyl]carbamoyl]-4-(5-isopropylpyrazol-1-yl)-1-piperidyl]methyl]cyclobutanecarboxylic acid] |
| 30.4 | CC(C)c1c(F)cnn1C1(C(=O)Nc2ccc(Cl)cc2OC(F)F)CCN(CC2(C(=O)O)CCC(=O)CC2)CC1 [Compound 153, 1-[[4-[[4-chloro-2-(difluoromethoxy)phenyl]carbamoyl]-4-(4-fluoro-5-isopropyl-pyrazol-1-yl)-1-piperidyl]methyl]-4-oxo-cyclohexanecarboxylic acid] |

Reference: US20260102383A1, “LPAR1 Inhibitors” (AbbVie Inc., priority 2024, published 2026)
